The values below come from PubChem BioAssay (NCI).

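A five-concentration, 48-hour dose response in 96-well plates underlies each endpoint, interpolated linearly between surrounding concentrations. The concentration for full growth arrest is given as TGI.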

Test systems include P388/ADR leukemia; KM20L2 colon; SNB-78 CNS; P388 leukemia; XF 498 CNS; LXFL 529 NSCLC.
Holding throughout (assay): NCI tumour cell line growth inhibition, 48 h

`CCC1=CC2CN3CCc4c([nH]c5ccccc45)C(C(=O)OC)(C2)C13` (stereo not drawn): the TGI in the assay with P388/ADR leukemia came out at 131 µM; in the assay with KM20L2 colon, 19.3 µM; with SNB-78 CNS it was 167 µM; in the assay on P388 leukemia it was 93.1 µM; in the assay with XF 498 CNS, 76.3 µM.

On to `COc1cc(C2C(Cl)C(=O)N2NC(=O)c2ccccc2O)ccc1O` (stereo not drawn), for which the TGI in the assay on SNB-78 CNS, in the assay on LXFL 529 NSCLC and with XF 498 CNS was > 100 µM in each case.

As to `COc1nc(SC)nc2c1cnn2C1OC(C(O)CO)C(OC)C1O` (stereo not drawn), the TGI in the assay with P388/ADR leukemia, with KM20L2 colon, in the assay on SNB-78 CNS, with P388 leukemia and in the assay on XF 498 CNS was > 100 µM in each case.

On to `CCOC(=O)c1c(C)c2c(n1C)CCc1cn[nH]c1-2`, for which the TGI in the assay with P388/ADR leukemia was > 31.6 µM; in the assay on KM20L2 colon it was > 100 µM; in the assay with SNB-78 CNS, > 100 µM; in the assay on P388 leukemia it was > 100 µM; in the assay on XF 498 CNS, > 100 µM.

Turning to `CCCCC(C)C1CCC2(C)C=CC(=O)C(C)=C2C1O` (stereo not drawn), the TGI with P388/ADR leukemia, in the assay with KM20L2 colon, in the assay with SNB-78 CNS, in the assay with P388 leukemia and with XF 498 CNS was > 100 µM each time.
